Converted amounts (≈) assume the structure as drawn.
Legend:
Format in all cases: cell-based
[1] = tested on: HSF normal human skin fibroblast; test: MTT cytotoxicity assay on normal skin fibroblasts; details: for SI (selectivity index), HSF: IC50 normal cells (HSF) / IC50 HSF
Method: (§1) Cells (HeLa, cervical cancer cells; MDA-MB-231, breast cancer cells; A375, skin cancer cells; A549, lung cancer cells; and HSF, normal skin fibroblasts cells) were supplied from Nawah Scientific (Cairo, Egypt). The cells were grown in DMEM medium supplemented with 10% fetal bovine serum (Gibco, Life Technologies Inc., UK) with 1% penicillin/streptomycin solution (Gibco). Cells were maintained at 37°C with 5% CO2.
(§2) MTT in vitro cytotoxic assay assesses the metabolic activity of viable cells through the reduction of the water-soluble yellow dye by mitochondrial succinate dehydrogenase into the insoluble purple formazan. In brief, cyanochalcone derivatives were dissolved in 100% dimethyl sulphoxide (DMSO, Serva, Heidelberg, Germany) and incubated with cells at the desired concentrations (0, 6.25, 12.5, 25, 50, 100, and 200 μM) for 48 h with the corresponding vehicle as control. 5-Florouracil (5FU) was used as a positive control. Following incubation, old media were discarded and MTT solution (50 μl, 0.5 mg/ml) was added. After 4 h of incubation, the insoluble formed formazan was dissolved in DMSO (100 μl) with a shaking plate for 15 min in a dark place. The absorbance readings were taken at 570 nm by an ELISA reader. Relative cell viability was calculated as a percentage of control untreated cells. The assay was done in four replicates. The dose–response curve was plotted using GraphPad Prism 8, and the values of IC50 (half-maximal inhibitory concentration) were determined using non-linear regression analysis. Finally, the selectivity index was calculated by dividing the IC50 for normal cells by the IC50 of cancer cells.
(§3) To evaluate the potential usefulness of the Schiff base ligand (H2L) and the reported complexes (Fe, Zn, Cd, Pt) as antitumor agents, five human cell lines (normal Cells; HSF, human colorectal cancer cell line; HCT119, liver carcinoma cell line; HEPG2, human triple-negative breast cancer; MDA, human lung cancer cell line; A549) were treated by the compounds and compared with cis-platin activity as a standard. The IC50 values (concentration that produces 50% inhibition of cell growth) and selectivity index of the H2L ligand, the metal complexes, and cis-platin were tabulated in Table 4.

[2] = tested on: HCT119 (Human Colorectal cancer cell line); test: MTT cytotoxicity assay on colorectal cancer cells; details: for SI (selectivity index), HCT119: IC50 normal cells (HSF) / IC50 HCT119
Method: as §1, §2, §3

[3] = tested on: HepG2 (Human Liver cancer cell line); test: MTT cytotoxicity assay on liver cancer cells; details: for SI (selectivity index), HEPG2: IC50 normal cells (HSF) / IC50 HEPG2
Method: as §1, §2, §3

[4] = tested on: MDA (Human Breast cancer cell line); test: MTT cytotoxicity assay on triple-negative breast cancer cells; details: for SI (selectivity index), MDA: IC50 normal cells (HSF) / IC50 MDA
Method: as §1, §2, §3

[5] = tested on: A549 (Human Lung cancer cell line); test: MTT cytotoxicity assay on lung cancer cells; details: for SI (selectivity index), A549: IC50 normal cells (HSF) / IC50 A549
Method: as §1, §2, §3

[6] = HEPG2 liver carcinoma cells, MTT, 48 h
[7] = MDA triple-negative breast cancer cells, MTT, 48 h
[8] = HSF normal skin fibroblasts, MTT, 48 h
[9] = HCT119 colorectal cancer cells (HCT116 in abstract), MTT, 48 h
[10] = A549 lung cancer cells, MTT, 48 h

## O=C(Cc1ccccc1)NN=Cc1c(O)ccc2ccccc12 [H2L, Nʹ-((2-hydroxynaphthalen-1-yl)methylene)-2-phenylacetohydrazide]
[1]; Homo sapiens, Skin fibroblast, HSF normal skin fibroblasts, MTT, 48 h
  IC50: 91.2 µg/mL (≈ 300 µM)
[1]
  SI (selectivity index), HSF: 1.00
[2]; Homo sapiens, HCT-116, HCT119 colorectal cancer cells (HCT116 in abstract), MTT, 48 h
  IC50: 285 µg/mL (≈ 936 µM)
[2]
  SI (selectivity index), HCT119: 0.32
[3]; Homo sapiens, HEPG2 liver carcinoma cells, MTT, 48 h
  IC50: 31.6 µg/mL (≈ 104 µM)
[3]
  SI (selectivity index), HEPG2: 2.88
[4]; Homo sapiens, MDA triple-negative breast cancer cells, MTT, 48 h
  IC50: 25.1 µg/mL (≈ 82.5 µM)
[4]
  SI (selectivity index), MDA: 3.63
[5]; Homo sapiens, A549 lung cancer cells, MTT, 48 h
  IC50: 25.1 µg/mL (≈ 82.5 µM)
[5]
  SI (selectivity index), A549: 3.63

## C1=[N+]2N=C(Cc3ccccc3)[O][Zn-2]23[O+](c2ccc4ccccc4c21)[Zn-2]12[O]C(Cc4ccccc4)=N[N+]1=Cc1c(ccc4ccccc14)[O+]32.CC(=O)O.CC(=O)O (stereo not shown) [Zn complex]
[1]
  SI (selectivity index), HSF: 1.00
[3]; [6]
  IC50 (HEPG2): 32.35 µg/mL
[4]; [7]
  IC50 (MDA): 89.12 µg/mL

## N.N.[Cl][Pt][Cl] [Cisplatin, reference compound]
[1]; [8]
  IC50 (HSF): 11.07 µg/mL
[1]
  SI (selectivity index), HSF: 1.00
[2]; [9]
  IC50 (HCT119): 2.25 µg/mL
[2]
  SI (selectivity index), HCT119: 4.92
[3]; [6]
  IC50 (HEPG2): 3.42 µg/mL
[3]
  SI (selectivity index), HEPG2: 3.24
[4]
  SI (selectivity index), MDA: 3.45
[4]; [7]
  IC50 (MDA): 3.21 µg/mL
[5]; [10]
  IC50 (A549): 2.73 µg/mL
[5]
  SI (selectivity index), A549: 4.05

## O=C(Cc1ccccc1)NN=Cc1c([O-])ccc2ccccc12.O=C(Cc1ccccc1)NN=Cc1c([O-])ccc2ccccc12.[Fe+2] [Fe complex]
[1]; [8]
  IC50 (HSF): 15.84 µg/mL
[1]
  SI (selectivity index), HSF: 1.00
[2]; [9]
  IC50 (HCT119): 64.01 µg/mL
[2]
  SI (selectivity index), HCT119: 0.25
[3]; [6]
  IC50 (HEPG2): 40.73 µg/mL
[3]
  SI (selectivity index), HEPG2: 0.39
[4]
  SI (selectivity index), MDA: 2.09
[4]; [7]
  IC50 (MDA): 7.58 µg/mL
[5]; [10]
  IC50 (A549): 95.49 µg/mL
[5]
  SI (selectivity index), A549: 0.17

## CC(=O)[O-].CC(=O)[O-].[Cd+2].[Cd+2].[O-]c1ccc2ccccc2c1C=NN=C(O)Cc1ccccc1.[O-]c1ccc2ccccc2c1C=NN=C(O)Cc1ccccc1 [Cd complex]
[1]; [8]
  IC50 (HSF): 5.24 µg/mL
[1]
  SI (selectivity index), HSF: 1.00
[2]; [9]
  IC50 (HCT119): 0.329 µg/mL
[2]
  SI (selectivity index), HCT119: 15.93
[3]; [6]
  IC50 (HEPG2): 4.16 µg/mL
[3]
  SI (selectivity index), HEPG2: 1.26
[4]
  SI (selectivity index), MDA: 0.20
[4]; [7]
  IC50 (MDA): 25.7 µg/mL
[5]; [10]
  IC50 (A549): 56.23 µg/mL
[5]
  SI (selectivity index), A549: 0.09
